Entries after “also recorded” stand apart in the source; their conditions may differ.
How the values were obtained:
human p21 mRNA = assay: In vitro cleavage assay of human p21 mRNA; assay type: biochemical; details: in vitro cleavage of p21 mRNA (SEQ ID NO: 1); RNA substrate 500 nM, 37° C. 60 min, agarose gel
In short: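 RNA substrates were T7 in vitro transcripts from PCR-amplified cDNA (source RNA: senescent IMR-90 cells), gel-purified. Substrate at 500 nM final was incubated with DNAzyme (10 μM stock) in reaction buffer (10× stock: 50 mM Tris-HCl pH 7.4, 100 mM NaCl, 10 mM MgCl2) for 60 min at 37 °C. Cleavage products were resolved on 1.5% agarose TBE gels and quantified by densitometry.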

[1] = system: cancer cell lines (HepG2, A549, Panc1, HCT-116); assay: Chemotherapy and DNAzyme combination, several cancer cell lines; assay type: cell-based; details: therapy induced senescence, viability 72 hours following treatment (FIG. 12F)
Source text: PANC-1 cells were maintained in DMEM medium supplemented with 10% fetal bovine serum, 1% penicillin-streptomycin and 1% sodium pyruvate. HCT116 cells were maintained in McCoy's 5A medium supplemented with 10% fetal bovine serum and 1% penicillin-streptomycin. A549 cells were maintained in F-12K Medium supplemented with 10% fetal bovine serum and 1% penicillin-streptomycin. HepG2 cell were maintained Eagle's Minimum Essential Medium, supplemented in 10% fetal bovine serum, 1% penicillin-streptomycin and 1% sodium pyruvate. All cancer cell lines were incubated in 5% C02 at 37° C.
Cancer cell lines were seeded in 96 well plates 24 hours before treatment. Chemotherapies were applied at indicated concentrations either alone or as combination with DNAzyme-lipofectamine complex. 72 hours following treatment, cell viability was measured using Prestoblue® reagent. Chemotherapies were diluted in cell medium to the indicated concentrations. 24 hours following seeding, culture medium was replaced with chemotherapy containing medium, immediately followed by transfection of DNAzyme as described above. 72 hours following treatment, cell viability was measured using Prestoblue® reagent.
The following chemotherapies were used: Etoposide (Sigma), Palbociclib (Sigma), Doxorubicin (Sigma), Cisplatin (Sigma), ABT-263 (Selleckchem). All compounds were dissolved and stored according to manufacturer instructions.

[2] = system: senescent human IMR-90 fibroblast cells; assay type: cell-based; details: increasing concentrations (FIGS. 6A-C, 12A-C)
In short: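 Senescence was induced by etoposide at […] for 48 h, with the phenotype present 7 days later, or by H-RasG12 or long-term passaging. Cells grown at 5% oxygen were transfected with DNAzymes by Lipofectamine 2000, and survival was scored 3-6 days later by PrestoBlue relative to Lipofectamine-only control.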

[3] = DNAzyme stability analysis in serum; assay type: in vitro ADME
Experimental: DNAzyme stability was assessed by incubation with PBS, plasma and BALF (Bronchoalveolar Lavage Fluid). A comparison between unmodified and 3′Inverted dT modification was made. Following incubation for the indicated time points, samples were analyzed using gel electrophoresis. Quantification compared to time 0 was performed using Image Lab software (Bio Rad).

DNAzyme 1670: SEQ ID NO: 54: GGGAAAGGAggctagctacaacgaAAGGGGGAG (DNA GGGAAAGGAGGCTAGCTACAACGAAAGGGGGAG; DNA, backbone and methylation of C not given here)
Validated cleavage (human p21 mRNA): time and concentration dependent; also recorded: validated for mediating cleavage of p21 mRNA | efficacy of sub-clinical Etoposide in combination with DNAzyme [1]: comparable to that of clinical Etoposide dose | selectivity of killing, senescent versus growing IMR-90 cells [2]: wide range of selective doses | time to complete degradation in serum ([3]; unmodified DNAzyme, from the start of incubation (FIG. 13A)): 48 h | time to degradation in serum ([3]; with 3′ inverted dT modification versus unmodified (FIG. 13B)): significantly increased
